US20170097358A1, “EARLY DETECTION OF PREECLAMPSIA” (Igenomix S.L., priority 2014, published 2017)

What was measured:
Format in all cases: cell-based, human
plasminogen = test: Plasminogen level in hESC conditioned media by ELISA; conditions: heparin 100 ug/mL; control siRNA, ANXA2 siRNA, non-PE and sPE decidualized hESCs (all conditions)
Protocol: Plasminogen level was evaluated in conditioned media by ELISA kit (Cell Biolabs, CA, USA) following manufacturer's instructions. Average absorbance (Δ450 nm) in duplicate wells was calculated by subtracting the background from wells with media without hESC.
(§1) hESCs were cultured on monolayer in presence of 50 μg/mL and 100 μg/mL of heparin (Sigma, Madrid, during 15, 30 and 60 min to elaborate a dose-response experiment. Conditioned media from hESC cells were collected to analyze plasminogen levels, plasmin activity and metalloproteases production.

plasmin = test: Plasmin activity in hESC conditioned media, fluorimetric assay; conditions: heparin 100 ug/mL
Protocol: Plasmin activity was measured in conditioned media by fluorimetric assay kit (Anaspec, CA, USA). It is based in a protease cleavage to plasmin substrate that generates a rhodamine 110 fluorophore which has a bright green fluorescence detected at 496 nm/520 nm (excitation/emission). Fifty microlitres of conditioned media was pre-incubated 10 min at room temperature and 50 uL of plasmin substrate solution was added into each well. Fluorescence signal was obtain for kinetic reading immediately start measuring and record data every 5 min for 60 min, with a total of 13 lectures. Each condition was evaluated in duplicate. The fluorescence was Interpol to concentration values using an Rh110 fluorescence reference standard.
as §1

MMP2 = MMP2 level in hESC conditioned media by ELISA; conditions: heparin treatment, all hESC conditions
Protocol: (§2) MMP2 and MMP9 pro and active protein forms were evaluated by commercial ELISA analysis (RayBiotech, GA, USA). These assays employ an antibody specific for humans MMP-2 and MMP-9 coated on a 96-well plate. Standards and samples are pipette by duplicated into the wells and MMP-2 and MMP-9 present in a sample is bound to the wells by the immobilized antibody. Biotinylated anti-human MMP-2 and MMP-9 and HRP-conjugated streptavidin were added. TMB substrate solutions were added and absorbance at 450 nm was extrapolated to standard curve.
as §1

MMP9 = MMP9 level in hESC conditioned media by ELISA; conditions: heparin treatment, all hESC conditions
Protocol: as §2, §1

ANXA2 = test: Secreted extracellular ANXA2 in hESC conditioned media by ELISA; conditions: heparin treatment; control, ANXA2 siRNA and sPE hESCs
Protocol: Protein extracts (2 μg/well) and conditioned media were analyzed by ELISA (R&D Systems, MN, USA). Inmobilized capture antibody specifically binds Annexin A2. After washing away un-bounded material, a biotinylated detection antibody specific for Annexin A2 is used to detect the bound Annexin A2, using a standard Streptavidin-HRP format. Three replicates were performed for each condition and the absorbance values were extrapolated to standard curve to establish human Annexin A2 concentration (pg/mL).
as §1

heparin was tested, and the “Plasminogen secretion into the conditioned media” value (plasminogen) was “significantly increased”, the Plasmin activity (plasmin; ANXA2 siRNA hESCs and hESCs from sPE) was “significant increase” and the “Plasmin activity in conditioned media” value (plasmin; control siRNA, ANXA2 siRNA, non-PE and sPE decidualized hESCs (all conditions)) was “significantly increased”. The MMP2 production (MMP2) was “significant increase”, the MMP9 production (MMP9) was “significant increase” and the “ANXA2 protein secreted to the culture media” value (ANXA2) was “significant increase”.
